From patent publication US7541020B2, “Aminoalkyl glucosaminide phosphate compounds and their use as adjuvants and immunoeffectors” (priority 1997, dated 2009)
Where “and” joins values, the source holds several entries; their conditions need not be identical. Identical values can stand only once. Like-named read-outs stand apart in the source and are kept apart here.

What was measured:
[1] = Fever response in rabbits (pyrogenicity); type: in vivo; conditions: for PYROGENICITY Total Rise ° C., 3 rabbits: 10 ug/kg, cumulative rise ≥1.5 degree in three rabbits is considered pyrogenic; for PY[…]: rabbits
Procedure: The AGP compounds were also evaluated for their tendency to induce a fever response in rabbits. Each compound was formulated in 10% (v/v) ethanol/water solution at 100 mg/ml, then diluted with D5W to the desired concentration. The material was injected at 3 ml/kg body weight into 3 rabbits. The rise in core temperature of the rabbits was recorded.

E.G7 (OVA) cells = conditions: s.c. 25 μg OVA in AGP preparation, spleen cells 21 days later
ovalbumin = test: Stimulation of antiovalbumin antibody production; type: in vivo, BDF1 female mice; conditions: 50 μg AGP + 50 μg ovalbumin; second immunization day 21; bled 14 days after second injection
Procedure: BDF1 female mice (8 per group) were immunized with 0.2 ml of emulsions containing 50 μg of the AGPs +50 μg of ovalbumin. A second immunization was administered 21 days post primary. Each mouse was bled 14 days after the second injection.

influenza A/HK/68 = type: in vivo, ICR mice; conditions: mouse, in vivo
TNF-α = test: Cytokine induction in human whole blood ex vivo culture: TNF-α (ELISA); type: cell-based; conditions: 4 hr
Procedure: (§1) AGP compounds were solubilized in 10% EtOH-water and diluted to various concentrations. Fifty μl of each dilution were added to 450 μl of whole human blood. Controls were treated with culture media (RPMI). The reaction mixture was incubated at 37° C. for 4 hr with constant mixing on a rotator. Sterile PBS (1.5 ml) was added to the reaction mixture, the cells were centrifuged and the supernatents removed for cytokine testing. The concentration of TNF-α and IL-1β in each supernatent was determined using immunoassay ELISA kits from R&D Systems.

IL-1β = test: Cytokine induction in human whole blood ex vivo culture: IL-1β (ELISA); type: cell-based; conditions: 4 hr
Procedure: as §1

tetanus toxoid = conditions: mouse, in vivo, sc

Molecule: N-[(R)-3-Hexanoyloxytetradecanoyl]-O-[2-deoxy-4-O-phosphono-2-[(R)-3-hexanoyloxytetradecanoylamino]-3-O-[(R)-3-hexanoyloxytetradecanoyl]-α-d-glucopyranosyl]-l-serinamide Triethylammonium Salt [B29]
- PYROGENICITY Total Rise ° C., 3 rabbits [1]: 0.7 °C
- % Cytotoxicity (E.G7 (OVA) cells; E:T 12.5:1): 5%
- % Cytotoxicity (E.G7 (OVA) cells; E:T 25:1): 9%
- % Cytotoxicity (E.G7 (OVA) cells; E:T 50:1): 16%

Molecule: N-[(R)-3-Tetradecanoyloxytetradecanoyl]-O-[2-Deoxy-4-O-phosphono-2-[(R)-3-tetradecanoyloxytetradecanoylamino]-3-O-[(R)-3-tetradecanoyloxytetradecanoyl]-β-D-glucopyranosyl]-L-serine Triethylammonium Salt [B11]
- Anti-ovalbumin IgG1 T/C (ovalbumin): 1.6
- Anti-ovalbumin IgG1 Titer (ovalbumin): 2650
- Anti-ovalbumin IgG2a T/C (ovalbumin): 1.7
- Anti-ovalbumin IgG2a Titer (ovalbumin): 550
- Anti-ovalbumin IgG2b T/C (ovalbumin): 1.6
- Anti-ovalbumin IgG2b Titer (ovalbumin): 375
- Anti-ovalbumin IgM T/C (ovalbumin): 1.3
- Anti-ovalbumin IgM Titer (ovalbumin): 250
- Anti-ovalbumin Total Ig T/C (ovalbumin): 0.7
- Anti-ovalbumin Total Ig Titer (ovalbumin): 150
- Percent Survival (influenza A/HK/68): 30%
- Titer^−1 IgG1 (influenza A/HK/68): 200
- Titer^−1 IgG2a (influenza A/HK/68): 1600
- Titer^−1 IgG2b (influenza A/HK/68): 400
- Titer^−1 Total IgG (influenza A/HK/68): 1600
- TNF-α (TNF-α; Dosage 100 ng/ml, Table 17): 127 pg/mL
- TNF-α (TNF-α; Dosage 500 ng/ml, Table 17): 125 pg/mL
- TNF-α (TNF-α; Dosage 1000 ng/ml, Table 17): 115 pg/mL
- TNF-α (TNF-α; Dosage 5000 ng/ml, Table 17): 139 pg/mL
- TNF-α (TNF-α; Dosage 10,000 ng/ml, Table 17): 181 pg/mL
- IL-1β (IL-1β; Dosage 100 ng/ml, Table 17): 59.8 pg/mL
- IL-1β (IL-1β; Dosage 500 ng/ml, Table 17): 55.8 pg/mL
- IL-1β (IL-1β; Dosage 1000 ng/ml, Table 17): 54.5 pg/mL
- IL-1β (IL-1β; Dosage 5000 ng/ml, Table 17): 61.7 pg/mL
- IL-1β (IL-1β; Dosage 10,000 ng/ml, Table 17): 62.3 pg/mL
- PY[…] [1]: 0.3 to 0.6 µg/kg
- Anti-tetanus toxoid IgG1 T/C (tetanus toxoid): 1.86
- Anti-tetanus toxoid IgG1 Titer (tetanus toxoid): 400,000
- Anti-tetanus toxoid IgG2a Titer (tetanus toxoid): 10,450
- Anti-tetanus toxoid IgG2a titer (tetanus toxoid): 5900
- Anti-tetanus toxoid IgG2b Titer (tetanus toxoid): 26,800
- Anti-tetanus toxoid IgG2b titer (tetanus toxoid): 8400
- Anti-tetanus toxoid IgM T/C (tetanus toxoid): 4.75 and 3.3
- Anti-tetanus toxoid IgM Titer (tetanus toxoid): 7,600
- Anti-tetanus toxoid IgM titer (tetanus toxoid): 5120
- Anti-tetanus toxoid Total IgG T/C (tetanus toxoid): 3.6
- Anti-tetanus toxoid Total IgG Titer (tetanus toxoid): 23,200
- % Cytotoxicity (E.G7 (OVA) cells; E:T 12.5:1): 5%
- % Cytotoxicity (E.G7 (OVA) cells; E:T 25:1): 8%
- % Cytotoxicity (E.G7 (OVA) cells; E:T 50:1): 14%

Molecule: CCCCCCCCCCCCCC(=O)O[C@H](CCCCCCCCCCC)CC(=O)N[C@H]1[C@H](OC[C@H](NC(=O)C[C@@H](CCCCCCCCCCC)OC(=O)CCCCCCCCCCCCC)C(=O)OC)O[C@H](CO)[C@@H](OP(=O)(O)O)[C@@H]1OC(=O)C[C@@H](CCCCCCCCCCC)OC(=O)CCCCCCCCCCCCC.CCN(CC)CC [B26, N-[(R)-3-Tetradecanoyloxytetradecanoyl]-O-[2-deoxy-4-O-phosphono-2-[(R)-3-tetradecanoyloxytetradecanoylamino]-3-O-[(R)-3-tetradecanoyloxytetradecanoyl]-β-D-glucopyranosyl]-1-serine Methyl Ester Triethylammoniun Salt]
- TNF-α (TNF-α; Dosage 1 μg, 37° C., Table 14): 38.85 pg/mL
- TNF-α (TNF-α; Dosage 5 μg, 37° C., Table 14): 75.62 pg/mL
- TNF-α (TNF-α; Dosage 10 μg, 37° C., Table 14): 254.94 pg/mL
- TNF-α (TNF-α; Dosage 20 μg, 37° C., Table 14): 498.90 pg/mL
- IL-1β (IL-1β; Dosage 1 μg, 37° C., Table 14): 3.90 pg/mL
- IL-1β (IL-1β; Dosage 5 μg, 37° C., Table 14): 9.89 pg/mL
- IL-1β (IL-1β; Dosage 10 μg, 37° C., Table 14): 25.34 pg/mL
- IL-1β (IL-1β; Dosage 20 μg, 37° C., Table 14): 33.25 pg/mL
- PYROGENICITY Total Rise ° C., 3 rabbits [1]: 1.7 °C
- PY[…] [1]: 5 µg/kg
- Anti-tetanus toxoid IgG1 T/C (tetanus toxoid): 16.9
- Anti-tetanus toxoid IgG1 Titer (tetanus toxoid): 25,200
- Anti-tetanus toxoid IgG2a T/C (tetanus toxoid): 29.3
- Anti-tetanus toxoid IgG2a Titer (tetanus toxoid): 440
- Anti-tetanus toxoid IgG2b T/C (tetanus toxoid): 42.6
- Anti-tetanus toxoid IgG2b Titer (tetanus toxoid): 2,260
- Anti-tetanus toxoid IgM T/C (tetanus toxoid): 1.1
- Anti-tetanus toxoid IgM Titer (tetanus toxoid): 600
- Anti-tetanus toxoid Total Ig T/C (tetanus toxoid): 10.5
- Anti-tetanus toxoid Total Ig Titer (tetanus toxoid): 2,490
- % Cytotoxicity (E.G7 (OVA) cells; E:T 12.5:1): 4%
- % Cytotoxicity (E.G7 (OVA) cells; E:T 25:1): 8%
- % Cytotoxicity (E.G7 (OVA) cells; E:T 50:1): 14%

Molecule: N-[(R)-3-Octanoyloxytetradecanoyl]-O-[2-deoxy-4-O-phosphono-2-[(R)-3-octanoyloxytetradecanoylamino]-3-O-[(R)-3-octanoyloxytetradecanoyl]-β-D-glucopyranosyl]-L-serine Triethylammonium Salt [B17]
- Percent Survival (influenza A/HK/68): 40%
- Titer^−1 IgG1 (influenza A/HK/68): 3200
- Titer^−1 IgG2a (influenza A/HK/68): 3200
- Titer^−1 IgG2b (influenza A/HK/68): 1600
- Titer^−1 Total IgG (influenza A/HK/68): 6400
- TNF-α (TNF-α; Dosage 1000 ng/ml, Table 19): 2.6 pg/mL
- TNF-α (TNF-α; Dosage 5000 ng/ml, Table 19): 2.2 pg/mL
- TNF-α (TNF-α; Dosage 10,000 ng/ml, Table 19): 2.8 pg/mL
- IL-1β (IL-1β; Dosage 1000 ng/ml, Table 19): 0.2 pg/mL
- IL-1β (IL-1β; Dosage 5000 ng/ml, Table 19): 0 pg/mL
- IL-1β (IL-1β; Dosage 10,000 ng/ml, Table 19): 0 pg/mL
- PYROGENICITY Total Rise ° C., 3 rabbits [1]: 3.4 °C
- % Cytotoxicity (E.G7 (OVA) cells; E:T 12.5:1): 15%
- % Cytotoxicity (E.G7 (OVA) cells; E:T 25:1): 26%
- % Cytotoxicity (E.G7 (OVA) cells; E:T 50:1): 39%

Molecule: 3-Hydroxy-(R)-2-[(R)-3-tetradecanoyloxytetradecanoylamino]propyl 2-Deoxy-4-O-phosphono-2-[(R)-3-tetradecanoyloxytetradecanoylamino]-3-O-[(R)-3-tetradecanoyloxytetradecanoyl]-β-D-glucopyranoside Triethylammonium Salt [B2]
- Anti-ovalbumin IgG1 T/C (ovalbumin): 5.0
- Anti-ovalbumin IgG1 Titer (ovalbumin): 8300
- Anti-ovalbumin IgG2a T/C (ovalbumin): 2.5
- Anti-ovalbumin IgG2a Titer (ovalbumin): 825
- Anti-ovalbumin IgG2b T/C (ovalbumin): 2.3
- Anti-ovalbumin IgG2b Titer (ovalbumin): 550
- Anti-ovalbumin IgM T/C (ovalbumin): 0.9
- Anti-ovalbumin IgM Titer (ovalbumin): 175
- Anti-ovalbumin Total Ig T/C (ovalbumin): 2.5
- Anti-ovalbumin Total Ig Titer (ovalbumin): 563
- PYROGENICITY Total Rise ° C., 3 rabbits [1]: 3.6 °C
- PY[…] [1]: 2.5 to 5 µg/kg
- % Cytotoxicity (E.G7 (OVA) cells; E:T 12.5:1): 6%
- % Cytotoxicity (E.G7 (OVA) cells; E:T 25:1): 12%
- % Cytotoxicity (E.G7 (OVA) cells; E:T 50:1): 21%

Molecule: 3-Hydroxy-(S)-2-[(R)-3-tetradecanoyloxytetradecanoylamino]propyl 2-Deoxy-4-O-phosphono-2-[(R)-3-tetradecanoyloxytetradecanoylamino]-3-O-[(R)-3-tetradecanoyloxytetradecanoyl]-β-D-glucopyranoside Triethylammonium Salt [B1]
- Anti-ovalbumin IgG1 T/C (ovalbumin): 0.5
- Anti-ovalbumin IgG1 Titer (ovalbumin): 763
- Anti-ovalbumin IgG2a T/C (ovalbumin): 0.2
- Anti-ovalbumin IgG2a Titer (ovalbumin): 56
- Anti-ovalbumin IgG2b T/C (ovalbumin): 0.8
- Anti-ovalbumin IgG2b Titer (ovalbumin): 188
- Anti-ovalbumin IgM T/C (ovalbumin): 0.8
- Anti-ovalbumin IgM Titer (ovalbumin): 150
- Anti-ovalbumin Total Ig T/C (ovalbumin): 0.5
- Anti-ovalbumin Total Ig Titer (ovalbumin): 119
- Percent Survival (influenza A/HK/68): 40%
- Titer−1 IgG1 (influenza A/HK/68): 6400
- Titer−1 IgG2a (influenza A/HK/68): 1600
- Titer−1 IgG2b (influenza A/HK/68): 15600
- Titer−1 Total IgG (influenza A/HK/68): 12,800
- PYROGENICITY Total Rise ° C., 3 rabbits [1]: 0.1 °C
- % Cytotoxicity (E.G7 (OVA) cells; E:T 12.5:1): 15%
- % Cytotoxicity (E.G7 (OVA) cells; E:T 25:1): 24%
- % Cytotoxicity (E.G7 (OVA) cells; E:T 50:1): 34%

Molecule: CCCCCCCCCCCCCC(=O)OC(CCCCCCCCCCC)CC(=O)NC(COC1OC(CO)C(OP(=O)(O)O)C(OC(=O)CC(CCCCCCCCCCC)OC(=O)CCCCCCCCCCCCC)C1NC(=O)CC(CCCCCCCCCCC)OC(=O)CCCCCCCCCCCCC)C(N)=O.CCN(CC)CC [B24, N-[(R)-3-Tetradecanoyloxytetradecanoyl]-O-phosphono-2-[(R)-3-tetradecanoyloxytetradecanoylamino]-3-O-[(R)-3-tetradecanoyloxytetradecanoyl]β-D-glucopyranosyl]-L-serinamide Triethylammonium Salt]
- PYROGENICITY Total Rise ° C., 3 rabbits [1]: 2.4 °C
- PY[…] [1]: 2.5 to 5 µg/kg
